Patent publication US11142504B2, “Substituted heterocycles as c-MYC targeting agents” (Northwestern University, priority 2016, dated 2021)

What was measured:
MV411 cells = assay: AML xenograft model, combination with Ara-C; format: in vivo, CB17 SCID mice; details: AML mice xenograft
Protocol: CB17 SCID mice were inoculated with MV411 cells at the density of 5×10^6 suspended in PBS and matrigel (1:1). The mice were randomized based on tumor volume into 6 different groups after the tumor reached ˜200 to 500 mm^3. The mice were treated either with vehicle, NU031, NU975 alone or in combination with cytarabine (Ara-C). […] (See FIG. 17).

MYC/Max binding to DNA = MYC/Max binding to DNA (Homo sapiens, UniProt P01106); assay: Electrophoretic mobility shift assay (EMSA)
Sequence of MYC/Max binding to DNA (P01106 whole entry, species assumed): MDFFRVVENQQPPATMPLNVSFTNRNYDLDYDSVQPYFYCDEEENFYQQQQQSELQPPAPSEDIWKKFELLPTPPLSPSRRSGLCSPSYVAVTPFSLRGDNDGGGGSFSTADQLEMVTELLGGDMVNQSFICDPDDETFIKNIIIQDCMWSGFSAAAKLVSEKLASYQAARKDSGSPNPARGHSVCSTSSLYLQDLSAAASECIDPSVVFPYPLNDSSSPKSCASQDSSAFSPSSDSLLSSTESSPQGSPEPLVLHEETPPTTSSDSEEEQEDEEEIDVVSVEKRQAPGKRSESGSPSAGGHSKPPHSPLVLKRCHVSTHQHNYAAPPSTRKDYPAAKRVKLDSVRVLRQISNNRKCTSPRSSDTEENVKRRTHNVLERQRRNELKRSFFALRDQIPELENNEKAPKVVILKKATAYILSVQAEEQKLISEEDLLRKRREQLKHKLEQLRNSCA
Protocol: We also tested our best hit compound Min9 (NUCC-0176234) and newly synthesized analogs for effects of these compounds on MYC/Max binding to DNA in electrophoretic mobility shift assays (EMSAs). (See FIG. 5a and FIG. 5b). We expected the active compounds to impair MYC/Max binding to DNA. Several structural analogs of Min9 were tested over multiple doses for inhibiting MYC-DNA binding and we observed a dose-dependent inhibition. (See FIG. 5c).

[1] = tested on: cMYC wild-type (WT) and cMYC KO line; assay: Cell viability assay, cMYC wild-type line vs cMYC KO line; format: cell-based
Protocol: Min9 (NUCC-0176234) was also tested in a cell viability assay against a cMYC wild-type (WT) and a cMYC KO line.

PC12 cells = assay: Cell viability of PC12 cells; format: cell-based; details: for IC50: Rattus norvegicus, PC-12, Cell viability of PC12 cells
Protocol: (§1) PC3 prostate cancer cell line with high Myc level and PC12 pheochromocytoma tumor cell line with non functional Max protein, which is not dependent on Myc-Max complex, were phased from ATCC. Cells were plated in 96 well plate at 1000 cells per well, and Myc inhibitor 361 at various concentrations was added to the cells next day. After 3 days of treatment, fresh medium with 361 were added again, and cell viability was measured by MTS assay at day 5 after the treatment. (See FIG. 11).

MycCap cells [2] = assay: Cell viability of MycCap cells; format: cell-based; details: Mus musculus, Myc-CaP
[3] = In vitro metabolism in mouse S9 fraction; format: in vitro ADME
Protocol: (§2) In vitro metabolism of NUCC-176242 and NUCC-176248 were tested using mouse liver microsomes and a mouse S9 fraction. (See FIG. 9).

[4] = tested on: MYC WT and KO fibroblasts; assay: Growth inhibition of wild type and MYC knockout rat fibroblasts; format: cell-based
From the text: We tested the top 13 active compounds in the first screen assay. […] More than half of the tested compounds show better growth inhibitory effect on MYC WT compared to MYC KO cells.

[5] = Stability in mouse liver microsomes; format: in vitro ADME; details: % remaining of compound after 60 min treatment with mouse liver microsomes
Protocol: as §2

MycCap cells [6] = assay: MycCap FVB allograft model; format: in vivo, FVB mice
Protocol: FVB mice were inoculated with 1×10^6 of MycCap cells in 100 ul of matrigel subcutaneously on both flanks of the mice. When tumor size reached average size of 150 mm^3, mice were randomized based on tumor volume to 2 groups. Mice were administered with 50 mg/kg of 361 or vehicle (Veh) twice daily intra-peritoneally for two days. The treatment was suspended for 10 day, and initiated the treatment with a lower dose […] daily for another 9 days. Tumor size was measured twice a week during the experiment. (See FIG. 15).
MycCap FVB allograft model was treated with 361 (50 mg/kg) for two days, following by two days of anti-PD-1 antibody (100 ug/day), and kept this 4-day treatment cycle for 4 cycles. (See FIG. 16).

[7] = tested on: MYC transcriptional activity; assay: MYC E-Box luciferase reporter assay; format: cell-based; details: MycCap Ebox-luc, 4 hours of treatment
Protocol: To test the compounds, we evaluated the in silico hits in a MYC E-Box luciferase reporter assay to measure the effects of these compounds (referred to as Min-1 to Min-32) on MYC transcriptional activity. […] (See FIG. 2).
MycCap cells stably expressing luciferase with CMV promoter (MycCap-luc) or c-Myc E-box-luciferase reporter (MycCap Ebox-luc) were plated at 10000 cells per well in 96 well white-wall plate. Serial dilutions of 361 were treated next day. At 4 hours of treatment, luminescence signal was determined immediately after adding 150 μg/ml of Luciferin to the well. (See FIG. 12).

[8] = tested on: PC3 prostate cancer cell line; assay: Proliferation assay (MTS), PC3 cells; format: cell-based; details: MTS at day 5
Protocol: as §1

IC50 (MYC/Max binding to DNA) [µM]	MLM % at 60 min [5] [%]	SMILES	IC50 (PC12 cells) [µM]	IC50 (MycCap cells [2]) [µM]	also measured
		CCCCOc1ccc(-c2cc(C(F)(F)F)n[nH]2)c(O)c1-c1cc(C(F)(F)F)cc(C(F)(F)F)c1 [NU031]			anti-tumor effect in combination with Ara-C (MV411 cells): significant difference compared to control group
		Cn1nc(C(F)(F)F)cc1-c1ccc(OCc2ccc(Cl)cc2)c(-c2ccc(Cl)c(C(F)(F)F)c2)c1O [NU975]			anti-tumor effect in combination with Ara-C (MV411 cells): significant difference compared to control group
		CCc1ccc(Oc2c[nH]nc2-c2ccc(OCc3cnn(-c4ccccc4)c3)cc2O)cc1 [NUCC-0176234]			inhibition of MYC/Max binding to DNA (in words) (MYC/Max binding to DNA): prevent c-MYC/DNA binding; cell viability, WT line vs KO cells [1]: reduces cell viability much more in the WT line than the KO cells
		CCc1ccc(Oc2c(-c3ccc(OCc4ccc(Cl)cc4)cc3O)n[nH]c2C(F)(F)F)cc1 [NUCC-0176242]	9.8	3.1	in vitro metabolism by mouse S9 fraction [3]: significantly metabolism by the mouse S9 fraction
		CCc1ccc(Oc2c(-c3ccc(OCc4ccc(Cl)cc4)cc3O)nn(C)c2C(F)(F)F)cc1 [NUCC-0176248]	7.8	3.4	selectivity of growth inhibition, MYC WT vs MYC KO cells [4]: high specificity
		CCc1ccc(Oc2c(-c3ccc(OCc4ccncc4)cc3O)n[nH]c2C(F)(F)F)cc1 [NUCC-0176250]			selectivity of growth inhibition, MYC WT vs MYC KO cells [4]: great selectivity
64.4	87.4	Oc1cc(OCc2ccc(Cl)cc2)ccc1-c1n[nH]c(C(F)(F)F)c1Oc1ccccc1Cl [NUCC-0196342]		3.5	
63	72.9	Cn1nc(C(F)(F)F)cc1-c1ccc(OCc2ccc(Cl)cc2)c(-c2cc(C(F)(F)F)cc(C(F)(F)F)c2)c1O [NUCC-0196361]	30.7	3.8	
102		Oc1c(-c2cc(C(F)(F)F)[nH]n2)ccc(OCc2ccc(Cl)cc2)c1-c1cc(C(F)(F)F)cc(C(F)(F)F)c1 [NUCC-0196362]		4	
61.8	88.6	Oc1c(-c2cc(C(F)(F)F)[nH]n2)ccc(OCc2ccc(Cl)cc2)c1-c1ccccc1Cl [NUCC-0196363]		4	
53.3		Oc1cc(OCc2ccc(Cl)cc2)ccc1-c1n[nH]c(C(F)(F)F)c1-c1ccccc1 [NUCC-0198295]		4.6	
61.2	74	COc1cccc(-c2c(-c3ccc(OCc4ccc(Cl)cc4)cc3O)n[nH]c2C(F)(F)F)c1 [NUCC-0198309]		4	
	60.3	CCOC(=O)c1cc(-c2ccc(OCc3ccc(Cl)cc3)c(-c3cc(C(F)(F)F)cc(C(F)(F)F)c3)c2O)n[nH]1 [NUCC-0200972]	81	5.1	
		Cn1nc(C(F)(F)F)cc1-c1ccc(OCc2ccc(Cl)cc2)c(-c2ccc(Cl)c(C(F)(F)F)c2)c1O [NUCC-0200975]	38.4	6.1	anti-tumor effect in combination with Ara-C (MV411 cells; listed as 975): significant synergic anti-tumor effect with Ara-C
	21.8	Cn1nc(C(F)(F)F)cc1-c1ccc(OCc2ccc(Cl)cc2)cc1C=O [NUCC-0200976]	63.3	3.9	
	30.5	Oc1c(-c2cc(C(F)(F)F)n[nH]2)ccc(OCCN2CCCC2)c1-c1cc(C(F)(F)F)cc(C(F)(F)F)c1 [NUCC-0201032]	11	1	
	75.8	Oc1c(-c2cc(C(F)(F)F)[nH]n2)ccc(Oc2ccc(Cl)cc2)c1-c1cc(C(F)(F)F)cc(C(F)(F)F)c1 [NUCC-0201223]	40.6	5.1	
		Cn1nc(C(F)(F)F)cc1-c1ccc(OCc2ccc(Cl)cc2)c(-c2cc(C(F)(F)F)cc(C(F)(F)F)c2)c1O [compound 361]			tumor progression, combination with immunotherapy (MycCap cells [6]; 361 50 mg/kg with anti-PD-1 antibody, 4-day cycles): significantly blocks tumor progression; tumor volume (MycCap cells [6]; mouse prostate cancer allograft, intra-peritoneally): reduces tumor volume; proliferation of Myc independent cell line PC12 (PC12 cells; MTS at day 5): not; c-Myc transcription activity [7]: inhibits c-Myc transcription activity as an early event before affecting cell viability; proliferation of Myc dependent cell line PC3 [8]: specifically inhibits proliferation
